The record followed here is patent US9567302B2, “Carbamate compounds and of making and using same” (Abide Therapeutics, Inc., priority 2012, dated 2017).

What all share (type): biochemical
Design in all cases: from tissue; host or cells: mouse brain membrane fraction

For one assay, the target named is T1, FAAH (Mus musculus, UniProt O08914).
T1 sequence (O08914 1-579): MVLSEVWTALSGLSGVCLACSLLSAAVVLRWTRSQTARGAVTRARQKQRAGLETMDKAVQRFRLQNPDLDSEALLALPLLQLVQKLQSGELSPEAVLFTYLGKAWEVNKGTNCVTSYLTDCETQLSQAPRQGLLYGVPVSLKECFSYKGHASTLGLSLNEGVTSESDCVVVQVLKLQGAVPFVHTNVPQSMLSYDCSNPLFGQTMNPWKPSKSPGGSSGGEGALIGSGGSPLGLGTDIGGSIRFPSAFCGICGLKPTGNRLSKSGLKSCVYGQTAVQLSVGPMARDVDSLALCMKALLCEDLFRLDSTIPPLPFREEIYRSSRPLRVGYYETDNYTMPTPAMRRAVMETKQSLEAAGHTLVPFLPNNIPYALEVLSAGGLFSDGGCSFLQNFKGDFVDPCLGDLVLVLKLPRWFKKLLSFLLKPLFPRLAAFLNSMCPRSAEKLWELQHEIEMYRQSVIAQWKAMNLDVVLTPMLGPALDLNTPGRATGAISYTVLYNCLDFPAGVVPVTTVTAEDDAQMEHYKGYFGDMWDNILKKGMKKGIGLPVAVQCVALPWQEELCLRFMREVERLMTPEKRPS
As to the kind of experiment: In vitro competitive activity-based protein profiling (FP-Rh), mouse FAAH. The settings on record: Table 1, mouse proteome, 30 min preincubation at 37° C. As for the experimental part:
(§1) In Vitro Competitive Activity-Based Protein Profiling.
(§2) Proteomes (mouse brain membrane fraction or cell lysates) (50 μL, 1.0 mg/ml total protein concentration) were preincubated with varying concentrations of inhibitors at 37° C. After 30 min, FP-Rh (1.0 μL, 50 μM in DMSO) was added and the mixture was incubated for another 30 min at 37° C. Reactions were quenched with SDS loading buffer (50 μL—4×) and run on SDS-PAGE.

A further assay deals with T2, ABHD6 (Mus musculus, UniProt Q8R2Y0).
T2 sequence (Q8R2Y0 1-336): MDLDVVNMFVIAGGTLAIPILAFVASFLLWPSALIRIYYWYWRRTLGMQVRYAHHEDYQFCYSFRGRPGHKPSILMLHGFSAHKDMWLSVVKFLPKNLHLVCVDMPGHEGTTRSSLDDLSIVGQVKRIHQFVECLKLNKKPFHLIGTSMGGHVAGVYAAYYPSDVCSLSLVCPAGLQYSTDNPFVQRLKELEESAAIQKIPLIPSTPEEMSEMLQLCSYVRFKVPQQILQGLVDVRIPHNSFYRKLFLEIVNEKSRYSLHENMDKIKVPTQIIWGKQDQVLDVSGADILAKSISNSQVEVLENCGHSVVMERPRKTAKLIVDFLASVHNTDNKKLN
Nature of the assay: In vitro competitive activity-based protein profiling (FP-Rh), mouse ABHD6. To be noted: Table 1, mouse proteome, 30 min preincubation at 37° C. As for the experimental part: as §1, §2

Another assay has as its target T3, MAGL (Mus musculus, UniProt O35678).
T3 sequence (O35678 1-303): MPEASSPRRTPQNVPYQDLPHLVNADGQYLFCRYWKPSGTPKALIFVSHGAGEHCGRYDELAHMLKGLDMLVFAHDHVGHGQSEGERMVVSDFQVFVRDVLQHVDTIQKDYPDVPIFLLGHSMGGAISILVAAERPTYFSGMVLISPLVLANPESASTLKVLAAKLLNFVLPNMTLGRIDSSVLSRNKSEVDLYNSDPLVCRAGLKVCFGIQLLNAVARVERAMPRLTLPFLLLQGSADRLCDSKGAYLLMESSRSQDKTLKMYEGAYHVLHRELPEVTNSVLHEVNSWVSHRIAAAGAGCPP
As to the kind of experiment: In vitro competitive activity-based protein profiling (FP-Rh), mouse MAGL. The settings on record: 30 min preincubation at 37° C. As for the experimental part:
as §1, §2

Take `O=C(ON1C(=O)CCC1=O)N1CCN(C(c2ccc(Cl)cc2)c2ccc(Cl)cc2)CC1` [Example 2, 2,5-Dioxopyrrolidin-1-yl 4-[bis(4-chlorophenyl)methyl]piperazine-1-carboxylate]: the 50% inhibitory concentration (IC50) (commonly the concentration needed to halve the response being measured) at FAAH is > 10000 nM; at ABHD6, 100 to 1000 nM.
Turning to `CC(C)(C)OC(=O)N1CCN(C(=O)ON2C(=O)CCC2=O)CC1` [Example 4, 1-tert-Butyl 4-(2,5-dioxopyrrolidin-1-yl) piperazine-1,4-dicarboxylate], the IC50 at MAGL (Table 1, mouse proteome) was > 10000 nM; at FAAH, > 10000 nM; at ABHD6, > 10000 nM.
With `O=C(NCCc1ccc(Oc2ccccc2)cc1)ON1C(=O)CCC1=O` [Example 6, 2,5-Dioxopyrrolidin-1-yl N-[2-(4-phenoxyphenyl)ethyl]carbamate], the IC50 is > 10000 nM on MAGL (Table 1, mouse proteome); 100 to 1000 nM at FAAH; > 10000 nM at ABHD6.
Turning to `CCN(Cc1ccccc1)C(=O)ON1C(=O)CCC1=O` [Example 9, 2,5-Dioxopyrrolidin-1-yl N-benzyl-N-ethylcarbamate], the IC50 at MAGL (Table 1, mouse proteome) is > 10000 nM; on FAAH, > 10000 nM; on ABHD6, > 10000 nM.
Turning to `CC1CCCCN1C(=O)ON1C(=O)CCC1=O` (centres unmarked) [Example 10, 2,5-Dioxopyrrolidin-1-yl 2-methylpiperidine-1-carboxylate], the IC50 was > 10000 nM on MAGL (Table 1, mouse proteome); > 10000 nM on FAAH; > 10000 nM on ABHD6.
As for `O=C1CCC(=O)N1OC(=O)N1CCCCC1CO` (centres unmarked) [Example 11, 2,5-Dioxopyrrolidin-1-yl 2-(hydroxymethyl)piperidine-1-carboxylate], the IC50 is > 10000 nM at MAGL (Table 1, mouse proteome); > 10000 nM on FAAH; > 10000 nM on ABHD6.
Consider `CN(Cc1cccc(-c2ccncc2)c1)C(=O)ON1C(=O)CCC1=O` [Example 12, 2,5-Dioxopyrrolidin-1-yl N-methyl-N-{[3-(pyridin-4-yl)phenyl]methyl}carbamate], for which the IC50 was 1000 to 10000 nM at MAGL (Table 1, mouse proteome); > 10000 nM at FAAH; 100 to 1000 nM at ABHD6.
For `CN(Cc1cccc(-c2cccnc2)c1)C(=O)ON1C(=O)CCC1=O` [Example 13, 2,5-Dioxopyrrolidin-1-yl N-methyl-N-{[3-(pyridin-3-yl)phenyl]methyl}carbamate] the same measures were > 10000 nM, > 10000 nM and > 10000 nM.
For `Cc1nc(-c2cccc(CN(C)C(=O)ON3C(=O)CCC3=O)c2)no1` [Example 14, 2,5-Dioxopyrrolidin-1-yl N-methyl-N-{[3-(5-methyl-1,2,4-oxadiazol-3-yl)phenyl]methyl}carbamate] the same measures were 1000 to 10000 nM, > 10000 nM and 100 to 1000 nM.
For `CN(CCc1ccccc1)C(=O)ON1C(=O)CCC1=O` [Example 15, 2,5-Dioxopyrrolidin-1-yl N-methyl-N-(2-phenylethyl)carbamate] the same measures were > 10000 nM, > 10000 nM and > 10000 nM.
`O=C(C1CCCCN1C(=O)ON1C(=O)CCC1=O)N1CCOCC1` (centres unmarked) [Example 16, 2,5-Dioxopyrrolidin-1-yl 2-(morpholine-4-carbonyl)piperidine-1-carboxylate]: the IC50 at MAGL (Table 1, mouse proteome) was > 10000 nM; on FAAH it was > 10000 nM; on ABHD6, > 10000 nM.
In the case of `O=C(ON1C(=O)CCC1=O)N1CCCCC1` [Example 17, 2,5-Dioxopyrrolidin-1-yl piperidine-1-carboxylate], the IC50 is > 10000 nM on MAGL (Table 1, mouse proteome) and > 10000 nM at FAAH.
Take `Cc1cc(N2CCN(C(=O)ON3C(=O)CCC3=O)CC2)c2ccccc2n1` [Example 18, 2,5-Dioxopyrrolidin-1-yl 4-(2-methylquinolin-4-yl)piperazine-1-carboxylate]: the IC50 is 100 to 1000 nM at MAGL (Table 1, mouse proteome); > 10000 nM on FAAH; 1000 to 10000 nM on ABHD6.
For `CCCN(Cc1ccc(N2CCCCC2)cc1)C(=O)ON1C(=O)CCC1=O` [Example 19, 2,5-Dioxopyrrolidin-1-yl N-{[4-(piperidin-1-yl)phenyl]methyl}-N-propylcarbamate] the same measures were > 10000 nM, > 10000 nM and > 10000 nM.
For `O=C(NC1CCCc2ccccc21)ON1C(=O)CCC1=O` (centres unmarked) [Example 20, 2,5-Dioxopyrrolidin-1-yl N-(1,2,3,4-tetrahydronaphthalen-1-yl)carbamate] the same measures were > 10000 nM, > 10000 nM and > 10000 nM.
Consider `O=C(ON1C(=O)CCC1=O)N1CCC(Cc2ccccc2)CC1` [Example 21, 2,5-Dioxopyrrolidin-1-yl 4-benzylpiperidine-1-carboxylate], for which the IC50 on MAGL (Table 1, mouse proteome) is 100 to 1000 nM; on FAAH, 1000 to 10000 nM; at ABHD6 it was 100 to 1000 nM.
Regarding `O=C1CCC(=O)N1OC(=O)N1CCCCC1Cc1ccccc1` (centres unmarked) [Example 22, 2,5-Dioxopyrrolidin-1-yl 2-benzylpiperidine-1-carboxylate], the IC50 on MAGL (Table 1, mouse proteome) is > 10000 nM; on FAAH, > 10000 nM; on ABHD6 it was > 10000 nM.
On to `O=C1CCC(=O)N1OC(=O)N1CCCCC1c1ccccc1` (centres unmarked) [Example 23, 2,5-Dioxopyrrolidin-1-yl 2-phenylpiperidine-1-carboxylate], for which the concentration for half-maximal inhibition (IC50) is > 10000 nM at MAGL (Table 1, mouse proteome); > 10000 nM at FAAH; > 10000 nM on ABHD6.
Turning to `O=C(NCCc1ccc2ccccc2c1)ON1C(=O)CCC1=O` [Example 27, 2,5-Dioxopyrrolidin-1-yl N-[2-(naphthalen-2-yl)ethyl]carbamate], the IC50 at MAGL (Table 1, mouse proteome) was > 10000 nM; on ABHD6, > 10000 nM.
Take `O=C(ON1C(=O)CCC1=O)N1CC[C@@H](OCc2ccccc2)C1` [Example 39, 2,5-Dioxopyrrolidin-1-yl (3R)-3-(benzyloxy)pyrrolidine-1-carboxylate]: the IC50 was > 10000 nM on MAGL (Table 1, mouse proteome) and > 10000 nM on FAAH.
Consider `O=C(ON1C(=O)CCC1=O)N1CC[C@H](OCc2ccccc2)C1` [Example 40, 2,5-Dioxopyrrolidin-1-yl (3S)-3-(benzyloxy)pyrrolidine-1-carboxylate], for which the IC50 was > 10000 nM at MAGL (Table 1, mouse proteome) and > 10000 nM at FAAH.
For `CN(C)C(=O)ON1C(=O)CNC1=O` [Example 58, 2,5-Dioxoimidazolidin-1-yl dimethylcarbamate], the half-inhibitory concentration (IC50) on FAAH was > 10000 nM.
Consider `Cc1cc(N2CCOCC2)ccc1CN1CCN(C(=O)ON2C(=O)CCC2=O)CC1` [Example 63, 2,5-Dioxopyrrolidin-1-yl 4-(2-methyl-4-morpholinobenzyl)piperazine-1-carboxylate], for which the IC50 on MAGL (Table 2, mouse proteome) is 1000 to 10000 nM.
The same measure, in the same setting: under `O=C(ON1C(=O)CCC1=O)N1CCN(Cc2ccc(Cl)cc2)CC1` [Example 64, 2,5-Dioxopyrrolidin-1-yl 4-(4-chlorobenzyl)piperazine-1-carboxylate] stands 100 to 1000 nM; under `O=C(ON1C(=O)CCC1=O)N1CCN(Cc2ccc(Br)cc2N2CCCC2)CC1` [Example 72, 2,5-Dioxopyrrolidin-1-yl 4-(4-bromo-2-(pyrrolidin-1-yl)benzyl)piperazine-1-carboxylate], < 100 nM.
The same measure, in the same setting: the result for `CC1CN(C(=O)ON2C(=O)CCC2=O)CCN1C(c1ccc(Cl)cc1)c1ccc(Cl)cc1` (centres unmarked) [Example 151, 2,5-Dioxopyrrolidin-1-yl 4-[bis(4-chlorophenyl)methyl]-3-methylpiperazine-1-carboxylate] reads 100 to 1000 nM.
Still for that read-out and setting: the result for `CC1CN(C(=O)ON2C(=O)CCC2=O)CCN1Cc1ccc(-c2ccccc2)cc1` (centres unmarked) [Example 160, 2,5-Dioxopyrrolidin-1-yl 3-methyl-4-[(4-phenylphenyl)methyl]piperazine-1-carboxylate] reads 100 to 1000 nM; that for `O=C(ON1C(=O)CCC1=O)N1CCN(Cc2ccc(-c3ccccc3)cc2N2CCOCC2)CC1` [Example 161, 2,5-Dioxopyrrolidin-1-yl 4-((3-morpholino-[1,1′-biphenyl]-4-yl)methyl)piperazine-1-carboxylate], 100 to 1000 nM.
